Values quoted from earlier work as cited in patent US20260151310A1, “COSMETIC FOR HAIR GROWTH, COSMETIC RAW MATERIAL AND COSMETIC, AND METHOD FOR PRODUCING THE SAME” (Teika Pharmaceutical Co., Ltd., priority 2021, published 2026).

Tested on: hair density and hair thickness
Conditions: compared with positive control minoxidil; Non Patent Literature 1

In the case of `[O-][n+]1ccccc1[S-].[O-][n+]1ccccc1[S-].[Zn+2]` [pyrithione zinc], the “Effect on hair density and hair thickness” value is given as “less than half the effect of a positive control minoxidil”.
